Counter-ions that a name gives are not always drawn.
Biological target: T1, h5-HT5A receptor (Homo sapiens, UniProt P47898)
T1 construct: expressed in transfected cells
Test: h5-HT5A-[3H]5-CT binding assay
Settings: membranes of HEK293 cells expressing h5-HT5A; 2.5 nM [3H]5-CT; read-out: Binding affinity 5-HT5A (Ki)
Experimental: 1. h5-HT5A-[^3H]5-CT Binding Assay
Membranes of HEK293 cells which permanently express the h5-HT5A receptor gene were incubated in 100 mM tris-HCl buffer (pH 7.7) containing 1 mM EDTA, in the presence of 2.5 nM [^3H]5-CT (total volume 600 μL). The total binding is defined as the binding that is observed when the membranes are incubated in the presence of only the radioligand. The inhibition induced by the compound is determined by incubation of cell membranes in the presence of the radioligand and various concentrations of the compound of interest. Nonspecific binding is defined as the [^3H]5-CT binding obtained by incubation of the membranes, the same as for the total binding, but in the presence of 10 μM methiothepine. Following incubation for 75 min at 30° C., the membrane suspension was filtered through a GF/B-Filter coated with 0.03% PEI, using a Skatron® harvesting system. The residual radioactivity in the filter was quantified by liquid scintillation counting.
Various concentrations of the test substances were used in both assays, and the Ki or IC50 values were determined.

T1 sequence (P47898 whole entry): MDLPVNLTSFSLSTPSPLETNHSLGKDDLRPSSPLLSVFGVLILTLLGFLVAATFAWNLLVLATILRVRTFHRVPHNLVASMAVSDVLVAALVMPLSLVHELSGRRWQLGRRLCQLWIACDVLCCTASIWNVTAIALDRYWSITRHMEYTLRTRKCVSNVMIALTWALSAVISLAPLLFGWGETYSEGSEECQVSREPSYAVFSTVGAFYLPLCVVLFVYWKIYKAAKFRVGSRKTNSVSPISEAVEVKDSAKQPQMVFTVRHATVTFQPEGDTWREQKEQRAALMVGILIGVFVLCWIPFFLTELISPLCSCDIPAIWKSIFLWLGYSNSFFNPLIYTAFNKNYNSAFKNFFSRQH

Row | Ki [nM] | Structure (SMILES)
1 | < 600 | COc1ccccc1Cn1cc(-c2ccc(C)o2)nc1N [Example 36, 1-(2-Methoxybenzyl)-4-(5-methylfuran-2-yl)-1H-imidazole-2-ylamine]
2 | < 600 | COc1ccccc1Cn1cc(-c2cccs2)nc1N [Example 13, 1-(2-Methoxybenzyl)-4-thiophene-2-yl-1H-imidazole-2-ylamine]
3 | < 600 | COc1ccc(-c2cn(Cc3c(Cl)cccc3OC)c(N)n2)cc1 [Example 32, 1-(2-Chloro-6-methoxybenzyl)-4-(4-methoxyphenyl)-1H-imidazole-2-ylamine]
4 | < 600 | COc1ccccc1Cn1cc(-c2ccc(N)cc2)nc1N [Example 53, 4-(4-Aminophenyl)-1-(2-methoxybenzyl)-1H-imidazole-2-ylamine hydrochloride]
5 | < 600 | COc1ccccc1Cn1cc(-c2csc3ccccc23)nc1N [Example 17, 4-Benzo[b]thiophene-3-yl-1-(2-methoxybenzyl)-1H-imidazole-2-ylamine hydrochloride]
6 | > 600 | COc1ccc(-c2nc(Cc3ccccc3OC)c(N)[nH]2)cc1 [Example 62, 5-(2-Methoxybenzyl)-2-(4-methoxyphenyl)-3H-imidazole-4-ylamine hydrochloride]
7 | < 600 | COc1cccc(OC)c1Cn1cc(-c2cc(C)cs2)nc1N [Example 52, 1-(2,6-Dimethoxybenzyl)-4-(4-methylthiophene-2-yl)-1H-imidazole-2-ylamine]
8 | < 600 | COc1cccc(OC)c1Cn1cc(-c2ccc(F)cc2)nc1N [Example 18, 1-(2,6-Dimethoxybenzyl)-4-(4-fluorophenyl)-1H-imidazole-2-ylamine]
9 | < 600 | COc1ccccc1Cn1cc(-c2cc3ccccc3o2)nc1N [Example 42, 4-Benzofuran-2-yl-1-(2-methoxybenzyl)-1H-imidazole-2-ylamine]
10 | < 600 | COc1ccccc1Cn1c(Cc2ccccc2)cnc1N [Example 41, 5-Benzyl-1-(2-methoxybenzyl)-1H-imidazole-2-ylamine]
11 | > 600 | CCOC(=O)c1cn(Cc2ccccc2OC)c(N)n1 [Example 21, 2-Amino-1-(2-methoxybenzyl)-1H-imidazole-4-carboxylic acid ethyl ester]
12 | < 600 | COc1ccccc1Cn1cc(-c2cccc(NC(=O)c3ccccc3)c2)nc1N [Example 58, N-{3-[2-Amino-1-(2-methoxybenzyl)-1H-imidazole-4-yl]phenyl}benzamide]
13 | < 600 | COc1ccccc1Cn1cc(-c2nccs2)nc1N [Example 49, 1-(2-Methoxybenzyl)-4-thiazole-2-yl-1H-imidazole-2-ylamine hydrochloride]
14 | < 600 | COc1cccc(OC)c1Cn1cc(-c2ccc(C#N)cc2)nc1N [Example 25, 4-[2-Amino-1-(2,6-dimethoxybenzyl)-1H-imidazole-4-yl]benzonitrile hydrochloride]
15 | < 600 | COc1ccccc1Cn1cc(-c2ccc(Br)cc2)nc1N [Example 1, 4-(4-Bromophenyl)-1-(2-methoxybenzyl)-1H-imidazole-2-ylamine]
16 | > 600 | COc1ccccc1Cn1cc(C(C)(C)C)nc1N [Example 11, 4-tert-Butyl-1-(2-methoxybenzyl)-1H-imidazole-2-ylamine]
17 | > 600 | CCOC(=O)c1cc(-c2cn(Cc3ccccc3OC)c(N)n2)on1 [Example 30, 5-[2-Amino-1-(2-methoxybenzyl)-1H-imidazole-4-yl]isoxazole-3-carboxylic acid ethyl ester]
18 | < 600 | COc1ccccc1Cn1cc(-c2ccc(C(C)C)cc2)nc1N [Example 39, 4-(4-Isopropylphenyl)-1-(2-methoxybenzyl)-1H-imidazole-2-ylamine]

Row | Ki [nM] | Structure (SMILES)
19 | < 600 | COc1ccccc1Cn1cc(C23CC4CC(CC(C4)C2)C3)nc1N [Example 24, 4-Adamantane-1-yl-1-(2-methoxybenzyl)-1H-imidazole-2-ylamine]
20 | < 600 | COc1ccccc1Cn1cc(-c2cccc(NS(=O)(=O)c3ccccc3)c2)nc1N [Example 56, N-{3-[2-Amino-1-(2-methoxybenzyl)-1H-imidazole-4-yl]phenyl}benzenesulfonamide]
21 | < 600 | COc1ccccc1Cn1cc(-c2cccc3ccccc23)nc1N [Example 43, 1-(2-Methoxybenzyl)-4-naphthalene-1-yl-1H-imidazole-2-ylamine]
22 | < 600 | COc1cccc(OC)c1Cn1cc(-c2ccccc2)nc1N [Example 8, 1-(2,6-Dimethoxybenzyl)-4-phenyl-1H-imidazole-2-ylamine hydrochloride]
23 | < 600 | COc1ccccc1Cn1cc(-c2ccc(C)cc2)nc1N [Example 27, 1-(2-Methoxybenzyl)-4-p-tolyl-1H-imidazole-2-ylamine]
24 | < 600 | COc1ccccc1Cn1cc(-c2ccc(OC(F)F)cc2)nc1N [Example 46, 4-(4-Difluoromethoxyphenyl)-1-(2-methoxybenzyl)-1H-imidazole-2-ylamine]
25 | < 600 | COc1cccc(-c2cn(Cc3ccccc3OC)c(N)n2)c1 [Example 23, 1-(2-Methoxybenzyl)-4-(3-methoxyphenyl)-1H-imidazole-2-ylamine]
26 | > 600 | COc1ccccc1Cn1nc(-c2ccccc2)nc1N [Example 5, 2-(2-Methoxybenzyl)-5-phenyl-4H-[1,2,4]triazole-3-ylamine]
27 | > 600 | COc1cc([N+](=O)[O-])ccc1Cn1cc(-c2ccc(C#N)cc2)nc1N [Example 54, 4-[2-Amino-1-(2-methoxy-4-nitrobenzyl)-1H-imidazole-4-yl]benzonitrile]
28 | < 600 | COc1ccccc1Cn1cc(-c2ccc(F)cc2)nc1N [Example 12, 4-(4-Fluorophenyl)-1-(2-methoxybenzyl)-1H-imidazole-2-ylamine]
29 | < 600 | COc1cccc(Cl)c1Cn1cc(-c2cccs2)nc1N [Example 37, 1-(2-Chloro-6-methoxybenzyl)-4-thiophene-2-yl-1H-imidazole-2-ylamine]
30 | < 600 | COc1ccccc1Cn1cc(-c2ccsc2)nc1N [Example 20, 1-(2-Methoxybenzyl)-4-thiophene-3-yl-1H-imidazole-2-ylamine hydrochloride]
31 | < 600 | COc1ccccc1Cc1nc(-c2ccccc2)[nH]c1N [Example 3, 5-(2-Methoxybenzyl)-2-phenyl-3H-imidazole-4-ylamine]
32 | < 600 | COc1ccccc1Cn1cc(-c2ccco2)nc1N [Example 15, 4-Furan-2-yl-1-(2-methoxybenzyl)-1H-imidazole-2-ylamine hydrochloride]
33 | < 600 | COc1ccccc1Cn1cc(-c2ccc(C#N)s2)nc1N [Example 50, 5-[2-Amino-1-(2-methoxybenzyl)-1H-imidazole-4-yl]thiophene-2-carbonitrile]
34 | < 600 | COc1ccccc1-c1cn(Cc2c(OC)cccc2OC)c(N)n1 [Example 26, 1-(2,6-Dimethoxybenzyl)-4-(2-methoxyphenyl)-1H-imidazole-2-ylamine hydrochloride]
35 | < 600 | COc1ccccc1Cn1cc(-c2cccc([N+](=O)[O-])c2)nc1N [Example 45, 1-(2-Methoxybenzyl)-4-(3-nitrophenyl)-1H-imidazole-2-ylamine]
36 | < 600 | COc1ccccc1Cn1cc(-c2cccc(NS(=O)(=O)c3ccc(C(C)C)cc3)c2)nc1N [Example 55, N-{3-[2-Amino-1-(2-methoxybenzyl)-1H-imidazole-4-yl]phenyl}-4-isopropylbenzenesulfonamide]

Source: US8921406B2, “5-ring heteroaromatic compounds and their use as binding partners for 5-HT5 receptors” (AbbVie Deutschland GmbH & Co. KG, priority 2005, dated 2014)
